Test results: publication PMC7413254 (Nature Communications, 2020)
Where two headings read alike, the source gives them in different places.

Assays:
non-expressing oocytes [1] = test: cells; format: cell-based, Xenopus laevis; conditions: non-expressing oocytes, total [3H]CQ transport, normalised to the oocyte type control
Summary of the method: (§1)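 Assay buffer ND96 (10 mM MES, 10 mM Tris-base) held at pH 5.5 to mimic vacuole lumen; uptake measured inward from this acidic medium over 1.5 h at 27.5 °C.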

PfCRT^3D7 [2] = molecular target: T1, PfCRT^3D7 (Plasmodium falciparum, UniProt Q8IBZ9); test: cell-based; format: cell-based; conditions: PfCRT3D7 oocytes, total [3H]CQ transport, normalised to the oocyte type control
Summary of the method: as §1

PfCRT^Dd2 [3] = molecular target: T2, PfCRT^Dd2 (Plasmodium falciparum, UniProt Q9N623, A220S/I356T/K76T/M74I/N326S/N75E/Q271E/R371I); test: [3H]CQ uptake into Xenopus oocytes, cis-inhibition by unlabelled solute; format: cell-based; conditions: PfCRTDd2 oocytes, background [3H]CQ accumulation subtracted, normalised to oocyte type control
Summary of the method: as §1

PfCRT^Ecu1110 [4] = molecular target: T3, PfCRT^Ecu1110 (Plasmodium falciparum, UniProt Q9N623, A220S/I356L/K76T/N326D); test: as above; format: cell-based; conditions: for Uptake of [3H]CQ (% PfCRTEcu1110 control), cis-inhibition / PfCRT-mediated [3H]CQ transport, cis-inhibition (% PfCRTEcu1110 control): PfCRTEcu1110 oocytes; for Uptake of [3H]CQ (% PfCRTEcu1110 control), cis-inhibition: total [3H]CQ transport, normalised to the oocyte type control; for PfCRT-mediated [3H]CQ transport, cis-inhibition (% PfCRTEcu1110 control): background [3H]CQ accumulation subtracted, normalised to oocyte type control; for [3H]CQ transport (% PfCRTEcu1110 control), cis-inhibition, PfCRTEcu1110: PfCRT-mediated component (background subtracted), sheet title says normalised to PfCRTDd2 control, mean ± SEM, SEM
Summary of the method: as §1

non-expressing oocytes [5] = format: cell-based, Xenopus laevis; conditions: non-expressing oocytes, total [3H]CQ transport, normalised to the oocyte type control
Summary of the method: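 Oocytes (ten per treatment, ≥4 independent frogs/days) were preloaded by injecting VF-6 in 25 nL ND96 at pH 5.0, 5.5, 6.0 or 7.0, or Na^+-free choline buffer, then uptake run 1.5 h, 27.5 °C, ND96 pH 5.5 by default. Internal concentrations assumed ~400 nL oocyte volume.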

PfCRT^3D7 [6] = molecular target: T1, PfCRT^3D7; test: cell-based; format: cell-based; conditions: PfCRT3D7 oocytes; for Uptake of [3H]CQ (% PfCRT3D7 control), trans-stimulation: total [3H]CQ transport, normalised to the oocyte type control; for PfCRT-mediated [3H]CQ transport, trans-stimulation (% PfCRT3D7 control): normalised to oocyte type control
Summary of the method: (§2)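 Transport measured in Xenopus oocytes expressing the transporters, 1.5 h at 27.5 °C in ND96 pH 5.5 unless noted. For trans-stimulation, VF-6 injected in 25 nL ND96 at pH 5.0–7.0 or Na^+-free (choline) buffer; intracellular levels based on ~400 nL oocyte volume. Ten oocytes per treatment, ≥4 experiments.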

PfCRT^Dd2 [7] = molecular target: T2, PfCRT^Dd2; test: cell-based; format: cell-based; conditions: for Uptake of [3H]CQ (% PfCRTDd2 control), trans-stimulation / PfCRT-mediated [3H]CQ transport, trans-stimulation (% PfCRTDd2 control): PfCRTDd2 oocytes; for Uptake of [3H]CQ (% PfCRTDd2 control), trans-stimulation: total [3H]CQ transport, normalised to the oocyte type control; for PfCRT-mediated [3H]CQ transport, trans-stimulation (% PfCRTDd2 control): normalised to oocyte type control; for [3H]CQ transport (% PfCRTDd2 control), trans-stimulation, PfCRTDd2: PfCRT-mediated component (background subtracted), mean ± SEM, SEM
Summary of the method: as §2

PfCRT^Ecu1110 [8] = molecular target: T3, PfCRT^Ecu1110; test: cell-based; format: cell-based; conditions: for Uptake of [3H]CQ (% PfCRTEcu1110 control), trans-stimulation / PfCRT-mediated [3H]CQ transport, trans-stimulation (% PfCRTEcu1110 control): PfCRTEcu1110 oocytes; for Uptake of [3H]CQ (% PfCRTEcu1110 control), trans-stimulation: total [3H]CQ transport, normalised to the oocyte type control; for PfCRT-mediated [3H]CQ transport, trans-stimulation (% PfCRTEcu1110 control): normalised to oocyte type control; for [3H]CQ transport (% PfCRTDd2 control), trans-stimulation, PfCRTEcu1110: PfCRT-mediated component (background subtracted), sheet title says normalised to PfCRTDd2 control, mean ± SEM, SEM
Summary of the method: as §2

PfNT1 = molecular target: T4, PfNT1 (Plasmodium falciparum, UniProt Q8IDM6); test: cell-based; format: cell-based; conditions: PfNT1 oocytes, total [3H]CQ transport, normalised to the oocyte type control
T4 construct: expressed in transfected cells; host or cells: Xenopus laevis oocytes (stage V-VI), cRNA-injected
Summary of the method: as §2

[9] = [test solute]i = 45 mM (30 mM for some solutes due to solubility)
[10] = [test solute]i = 5 mM (intracellular)
[11] = [test solute]i = 45 mM (intracellular; 30 mM for some solutes due to solubility)
[12] = [test solute]i = 5 mM (injected)

T1 sequence (Q8IBZ9 59-398): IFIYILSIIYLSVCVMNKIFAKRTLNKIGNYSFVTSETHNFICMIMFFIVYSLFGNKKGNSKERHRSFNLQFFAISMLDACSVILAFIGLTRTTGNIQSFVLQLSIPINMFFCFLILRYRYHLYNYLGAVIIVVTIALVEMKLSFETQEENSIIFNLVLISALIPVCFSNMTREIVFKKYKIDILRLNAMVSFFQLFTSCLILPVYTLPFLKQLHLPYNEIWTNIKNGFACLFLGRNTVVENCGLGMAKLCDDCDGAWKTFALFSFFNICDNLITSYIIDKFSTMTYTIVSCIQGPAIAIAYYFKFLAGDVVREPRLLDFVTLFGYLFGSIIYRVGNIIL
T2 sequence (Q9N623 whole entry A220S/I356T/K76T/M74I/N326S/N75E/Q271E/R371I): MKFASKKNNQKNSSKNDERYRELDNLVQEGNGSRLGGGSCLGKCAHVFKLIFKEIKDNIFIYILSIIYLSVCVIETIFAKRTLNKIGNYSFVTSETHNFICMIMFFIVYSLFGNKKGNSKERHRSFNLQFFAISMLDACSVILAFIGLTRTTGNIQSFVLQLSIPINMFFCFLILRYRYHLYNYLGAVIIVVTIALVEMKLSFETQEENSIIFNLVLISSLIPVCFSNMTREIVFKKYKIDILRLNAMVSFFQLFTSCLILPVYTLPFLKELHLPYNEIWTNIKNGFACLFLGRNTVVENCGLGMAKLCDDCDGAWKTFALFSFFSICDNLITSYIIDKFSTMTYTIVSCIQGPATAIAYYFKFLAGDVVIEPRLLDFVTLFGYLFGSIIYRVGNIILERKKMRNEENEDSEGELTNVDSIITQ
T3 sequence (Q9N623 whole entry A220S/I356L/K76T/N326D): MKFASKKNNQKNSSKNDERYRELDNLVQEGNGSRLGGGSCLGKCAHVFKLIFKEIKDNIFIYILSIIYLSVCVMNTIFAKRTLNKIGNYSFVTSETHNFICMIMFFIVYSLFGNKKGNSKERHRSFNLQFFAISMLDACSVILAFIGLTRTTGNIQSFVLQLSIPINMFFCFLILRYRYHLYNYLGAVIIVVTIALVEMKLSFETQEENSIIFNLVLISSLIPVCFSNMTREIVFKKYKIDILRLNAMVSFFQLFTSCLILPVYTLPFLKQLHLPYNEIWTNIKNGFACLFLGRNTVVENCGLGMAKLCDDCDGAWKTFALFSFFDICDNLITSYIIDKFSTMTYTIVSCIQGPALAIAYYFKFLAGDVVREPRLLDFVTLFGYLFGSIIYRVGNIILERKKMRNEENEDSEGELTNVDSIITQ
T4 sequence (Q8IDM6 whole entry): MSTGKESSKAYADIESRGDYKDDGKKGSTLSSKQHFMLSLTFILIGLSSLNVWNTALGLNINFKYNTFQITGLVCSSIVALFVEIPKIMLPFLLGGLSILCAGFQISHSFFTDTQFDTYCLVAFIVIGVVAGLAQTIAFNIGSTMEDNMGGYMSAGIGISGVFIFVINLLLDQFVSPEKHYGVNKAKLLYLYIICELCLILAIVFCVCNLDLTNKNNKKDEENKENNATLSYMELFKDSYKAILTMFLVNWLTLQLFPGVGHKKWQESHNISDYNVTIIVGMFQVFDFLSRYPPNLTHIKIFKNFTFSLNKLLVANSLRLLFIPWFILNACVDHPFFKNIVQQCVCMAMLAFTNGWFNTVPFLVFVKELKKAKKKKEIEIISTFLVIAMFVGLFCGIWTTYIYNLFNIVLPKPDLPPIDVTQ

For PEEK [PK-4], the “Uptake of [3H]CQ (% non-expressing oocyte control), cis-inhibition” value (non-expressing oocytes [1]; [test solute] = 0.5 mM) was 100 ± 5.8 % non-expressing oocyte control, the “Uptake of [3H]CQ (% non-expressing oocyte control), cis-inhibition” value (non-expressing oocytes [1]; [test solute] = 1 mM) was 99 ± 5.3 % non-expressing oocyte control and the “Uptake of [3H]CQ (% PfCRT3D7 control), cis-inhibition” value (PfCRT^3D7 [2]; [test solute] = 0.5 mM) was 102 ± 4.4 % PfCRT3D7 control. The “Uptake of [3H]CQ (% PfCRT3D7 control), cis-inhibition” value (PfCRT^3D7 [2]; [test solute] = 1 mM) was 99 ± 4.7 % PfCRT3D7 control, the “Uptake of [3H]CQ (% PfCRT3D7 control), cis-inhibition” value (PfCRT^3D7 [2]; [test solute] = 2 mM) was 98 ± 3.7 % PfCRT3D7 control and the “PfCRT-mediated [3H]CQ transport, cis-inhibition (% PfCRTDd2 control)” value (PfCRT^Dd2 [3]; [test solute] = 0.5 mM) was 57 ± 2.0 % PfCRTDd2 control. The “PfCRT-mediated [3H]CQ transport, cis-inhibition (% PfCRTDd2 control)” value (PfCRT^Dd2 [3]; [test solute] = 1 mM) was 44 ± 2.1 % PfCRTDd2 control, the “PfCRT-mediated [3H]CQ transport, cis-inhibition (% PfCRTDd2 control)” value (PfCRT^Dd2 [3]; [test solute] = 2 mM) was 37 ± 2.2 % PfCRTDd2 control and the “Uptake of [3H]CQ (% PfCRTEcu1110 control), cis-inhibition” value (PfCRT^Ecu1110 [4]; [test solute] = 0.5 mM) was 51 ± 3.2 % PfCRTEcu1110 control. The “Uptake of [3H]CQ (% PfCRTEcu1110 control), cis-inhibition” value (PfCRT^Ecu1110 [4]; [test solute] = 1 mM) was 47 ± 3.2 % PfCRTEcu1110 control, the “Uptake of [3H]CQ (% PfCRTEcu1110 control), cis-inhibition” value (PfCRT^Ecu1110 [4]; [test solute] = 2 mM) was 33 ± 2.6 % PfCRTEcu1110 control and the “PfCRT-mediated [3H]CQ transport, cis-inhibition (% PfCRTEcu1110 control)” value (PfCRT^Ecu1110 [4]; [test solute] = 0.5 mM) was 46 ± 1.6 % PfCRTEcu1110 control. The “PfCRT-mediated [3H]CQ transport, cis-inhibition (% PfCRTEcu1110 control)” value (PfCRT^Ecu1110 [4]; [test solute] = 1 mM) was 42 ± 4.2 % PfCRTEcu1110 control, the “PfCRT-mediated [3H]CQ transport, cis-inhibition (% PfCRTEcu1110 control)” value (PfCRT^Ecu1110 [4]; [test solute] = 2 mM) was 27 ± 1.9 % PfCRTEcu1110 control and the “[3H]CQ transport (% PfCRTEcu1110 control), cis-inhibition, PfCRTEcu1110” value (PfCRT^Ecu1110 [4]; [test solute] = 0.5 mM) was 14 ± 0.2 % PfCRTEcu1110 control. For the same substance, the “[3H]CQ transport (% PfCRTEcu1110 control), cis-inhibition, PfCRTEcu1110” value (PfCRT^Ecu1110 [4]; [test solute] = 1 mM) was 13 ± 0.4 % PfCRTEcu1110 control, the “[3H]CQ transport (% PfCRTEcu1110 control), cis-inhibition, PfCRTEcu1110” value (PfCRT^Ecu1110 [4]; [test solute] = 2 mM) was 9.0 ± 0.04 % PfCRTEcu1110 control and the “Uptake of [3H]CQ (% non-expressing oocyte control), trans-stimulation” value (non-expressing oocytes [5]; [test solute]i = 5 mM) was 100 ± 1.8 % non-expressing oocyte control. The “Uptake of [3H]CQ (% non-expressing oocyte control), trans-stimulation” value (non-expressing oocytes [5]; [9]) was 99 ± 1.5 % non-expressing oocyte control, the “Uptake of [3H]CQ (% PfCRT3D7 control), trans-stimulation” value (PfCRT^3D7 [6]; [test solute]i = 5 mM) was 99 ± 2.1 % PfCRT3D7 control and the “Uptake of [3H]CQ (% PfCRT3D7 control), trans-stimulation” value (PfCRT^3D7 [6]; [9]) was 100 ± 1.7 % PfCRT3D7 control. For the same substance, the “PfCRT-mediated [3H]CQ transport, trans-stimulation (% PfCRT3D7 control)” value (PfCRT^3D7 [6]; [10]) was 97 ± 3.8 % PfCRT3D7 control, the “PfCRT-mediated [3H]CQ transport, trans-stimulation (% PfCRT3D7 control)” value (PfCRT^3D7 [6]; [11]) was 98 ± 3.2 % PfCRT3D7 control and the “Uptake of [3H]CQ (% PfCRTDd2 control), trans-stimulation” value (PfCRT^Dd2 [7]; [test solute]i = 5 mM) was 97 ± 2.1 % PfCRTDd2 control. The “Uptake of [3H]CQ (% PfCRTDd2 control), trans-stimulation” value (PfCRT^Dd2 [7]; [9]) was 97 ± 3.2 % PfCRTDd2 control, the “PfCRT-mediated [3H]CQ transport, trans-stimulation (% PfCRTDd2 control)” value (PfCRT^Dd2 [7]; [10]) was 95 ± 4.4 % PfCRTDd2 control and the “PfCRT-mediated [3H]CQ transport, trans-stimulation (% PfCRTDd2 control)” value (PfCRT^Dd2 [7]; [11]) was 100 ± 4.3 % PfCRTDd2 control. The “[3H]CQ transport (% PfCRTDd2 control), trans-stimulation, PfCRTDd2” value (PfCRT^Dd2 [7]; [12]) was 95 ± 4.4 % PfCRTDd2 control, the “[3H]CQ transport (% PfCRTDd2 control), trans-stimulation, PfCRTDd2” value (PfCRT^Dd2 [7]; [9]) was 100 ± 4.3 % PfCRTDd2 control and the “Uptake of [3H]CQ (% PfCRTEcu1110 control), trans-stimulation” value (PfCRT^Ecu1110 [8]; [test solute]i = 5 mM) was 99 ± 1.4 % PfCRTEcu1110 control. For the same substance, the “Uptake of [3H]CQ (% PfCRTEcu1110 control), trans-stimulation” value (PfCRT^Ecu1110 [8]; [9]) was 97 ± 2.4 % PfCRTEcu1110 control, the “PfCRT-mediated [3H]CQ transport, trans-stimulation (% PfCRTEcu1110 control)” value (PfCRT^Ecu1110 [8]; [10]) was 97 ± 2.7 % PfCRTEcu1110 control and the “PfCRT-mediated [3H]CQ transport, trans-stimulation (% PfCRTEcu1110 control)” value (PfCRT^Ecu1110 [8]; [11]) was 95 ± 3.5 % PfCRTEcu1110 control. For the same substance, the “[3H]CQ transport (% PfCRTDd2 control), trans-stimulation, PfCRTEcu1110” value (PfCRT^Ecu1110 [8]; [12]) was 29 ± 1.1 % PfCRTEcu1110 control, the “[3H]CQ transport (% PfCRTDd2 control), trans-stimulation, PfCRTEcu1110” value (PfCRT^Ecu1110 [8]; [9]) was 29 ± 1.2 % PfCRTEcu1110 control and the “Uptake of [3H]CQ (% PfNT1 control), trans-stimulation” value (PfNT1; [test solute]i = 5 mM) was 99 ± 2.1 % PfNT1 control. The “Uptake of [3H]CQ (% PfNT1 control), trans-stimulation” value (PfNT1; [9]) was 100 ± 2.7 % PfNT1 control.
